Values of other authors in patent US20250241301A1, “COMPOSITIONS AND METHODS FOR INHIBITING PATHOGEN GROWTH ON PLANTS AND IMPROVING CROP SAFETY” (priority 2024, published 2025).

Tested on: potatoes
Details: T2H applied alone; cited from earlier work

CCC/C=C/C=O [T2H, trans-2-hexenal]
skin pitting/lesion damage to potatoes: skin pitting/lesion damage
